Assay results reported in patent US7732482B2, “Compound from Antrodia camphorata and the use thereof” (Simpson Biotech Co., Ltd., priority 2004, dated 2010).

Legend:
HSC-T6 cells = assay: Measurement of intracellular ROS (DCFH-DA, flow cytometry and confocal microscopy); type: cell-based, mice; details: HSC-T6, TGF-β 2 ng/ml; FIGS. 2-4
Method: For visualization and analysis of intracellular ROS, the oxidation-sensitive probe DCFH-DA was used, as previously described. To analyze the net intracellular generation of ROS by flow cytometry, cells were detached by trypsinization after incubation in the absence or presence of the different factors. The cellular fluorescence intensity was measured after 30 min incubation with […] DCFH-DA, by using the same flow cytometer described above. Propidium iodide (0.005%) was used to detect dead cells. For each analysis, 10,000 events were recorded. For confocal microscopy analysis, after incubation of cells in the absence or presence of the different factors, they were washed twice with PBS and the cellular fluorescence intensity was visualized after 30 min of incubation with […] DCFH-DA by using the same confocal microscopy described above. The analysis results were illustrated in FIGS. 2-4. […]
The influences of hepacin on mice-derived once-activated HSC-T6 line were studied. […] The luciferase activity was determined with or without 10, 5, 1 nM of hepacin in the absence or presence of 2 ng/ml of transforming growth factor TGF-β. The effects of hepacin on generation of intracellular reactive oxygen species (ROS) in HSC-T6 were also analyzed.

TGF-β = TGF-β mediated inflammation and fibrosis, cell model (HSC-T6) and animal model (mouse liver fibrosis); details: overall conclusion from the tests of Example 2 (FIGS. 5-10)
Method: The EMSA used the following oligonucleotides: consensus Sp1 (f), 5′-GTTGCGGGGCGGGGCCGAGTG-3′; consensus Sp1 (r), 3′-AACGCCCCGCCCCGGCTCACG-5′. 30 pmol of each of the forward and reverse oligonucleotides placed in a volume of 23 μl of 1× Klenow (DNA polymerase) buffer were heated at 94° C. for 2 min and annealed at room temperature for 30 min. The annealed double-stranded oligonucleotides were end-labeled by a fill-in reaction using DNA polymerase (Klenow)(Promega). One unit of the DNA polymerase (Klenow) and […] of (−32P)dCTP (PerkinElmer Life Sciences) were added into the annealed oligonucleotides and the mixture was incubated at 30° C. for 15 min. […] Samples were analyzed on a 4% polyacrylamide gel (acrylamide/bisacrylamide 29:1 in 0.5×Tris borate-EDTA buffer) at 10 V/cm for 2.5 h. The gel was dried and analyzed by autoradiography. […]
Liver samples (0.5 g) were lysed (Reporter lysis buffer, Promega, Madison, Wis., USA), the protein were boiled in Laemmli's sample buffer and samples were subjected to 10% SDSPAGE followed by western immunoblotting. […] Immunoreactive bands were detected using the enhanced chemiluminescence (ECL) reagent using SuperSignal West Pico Chemiluminescent Substrate (Pierce, Rockford, Ill., USA). The light emitted by the chemical reaction was detected by exposure to Hyperfilm ECL (Amersham Biosciences, Uppsala, Sweden). […]

Structure (SMILES): CC(C)=CCOc1ccc(C2=C(CC(C)C)C(=O)NC2=O)cc1 [Compound 2, 3-Isobutyl-4-[4-(3-methyl-2-butenyloxy)phenyl]-1H-pyrrole-2,5-dione]
- ROS scavenging (HSC-T6 cells): ROS Scavenger
- TGF-β mediated inflammation and fibrosis (TGF-β): Down Regulated TGF-β Mediated Inflammation and Fibrosis
